Consider eight molecules from PubChem BioAssay AID1117338.

Molecules are shown by their SMILES. Activity calls are given as the source filed them. The rule behind the calls is not given here. Where only a bound is given, the exact number is not on record here.

The subject of the test is SW480 viability, CellTiter-Glo luminescence. The test can be described thus: 50% inhibitory concentration in SW480 colon cancer line, survival by CellTiter-Glo luminescence, dose-dependent response (AID 1117338).
For the molecule `CC(=O)[O][Hg][c]1ccccc1`, the 50% inhibitory concentration (IC50) (in general, the midpoint of a concentration-inhibition curve) was 543 nM.

With `CCCCCCCCCCCCCC[N+](C)(C)C`, the IC50 is 933 nM.

For the molecule `O=C1[O][Bi][O]c2ccccc21`, the IC50 is > 20000 nM (inactive). For `Cn1cnc([N+](=O)[O-])c1Sc1ncnc2nc[nH]c12`, the IC50 was 9440 nM (inactive). Take `OCCN1CCN(CC/C=C2/c3ccccc3Sc3ccc(C(F)(F)F)cc32)CC1`: the 50% inhibitory concentration (IC50) was 3930 nM. The value for `Cc1ccc([N+](=O)[O-])[c]2c1[O][Hg]2` was 1130 nM; that for `O=C(O)C1(C(=O)O)CCC1.[NH2-].[NH2-].[Pt+2]` was > 20000 nM (inactive); that for `O=Cc1ccc(O)c(O)c1O` was 11300 nM (inactive).
